Laboratory results taken from patent publication US10017765B2, “Inhibitors of CACNA1A/ALPHA1A subunit internal ribosomal entry site (IRES) and methods of treating spinocerebellar ataxia type 6” (THE UNIVERSITY OF CHICAGO, priority 2013, dated 2018).
“Also recorded” adds a separate entry of the source.

How the values were obtained:
[1] = test system: CACNA1 A IRES pRCTF; experiment: Preliminary screening, pRCTF R-Luc/F-Luc bicistronic reporter in HEK293 cells; format: cell-based, human
[2] = test system: PC12 cells; experiment: NGF-induced neurite outgrowth of transfected PC12 cells; format: cell-based, rat; settings: NGF treatment

Compound	activity of CACNA1A IRES pRCTF [1]	α1AWT-induced neurite outgrowth ([2]; PC12 cells expressing full-length α1AWT-FLAG)	α1ACTWT-induced (enhanced) neurite outgrowth ([2]; PC12 cells transfected with α1ACTWT-FLAG)
COc1ccc(C[C@H]2NC[C@H](O)[C@H]2OC(C)=O)cc1 [anisomycin]	has the potential to inhibit	–	–
ω-agatoxin	–	could not be blocked; also recorded: did not block	no effect
